System: MV-4-11 cells
Test: Gene expression microarray analysis (Affymetrix PrimeView) and GSEA
Type: cell-based, human
Design: RFU PODN (11730768_x_at) / Fold change /veh PODN (11730768_x_at) / RFU LINC00158 (11744669_a_at) / Fold change /veh LINC00158 (11744669_a_at) / RFU DUSP10 (11751237_a_at) / Fold change /veh DUSP10 (11751237_a_at) / RFU ID3 (11757404_x_at) / Fold change /veh ID3 (11757404_x_at) / RFU PLEKHG5 (11737974_s_at) / Fold change /veh PLEKHG5 (11737974_s_at) / RFU LRRC4B (11730491_at) / Fold change /veh LRRC4B (11730491_at) / RFU GIMAP4 (11747438_a_at) / Fold change /veh GIMAP4 (11747438_a_at) / RFU KRT8 (11758183_x_at) / Fold change /veh KRT8 (11758183_x_at) / RFU CNN1 (11734310_a_at) / Fold change /veh CNN1 (11734310_a_at) / RFU VPS37D (11726825_at) / Fold change /veh VPS37D (11726825_at) / RFU C10orf10 (11716522_x_at) / Fold change /veh C10orf10 (11716522_x_at) / RFU KIR2DL2 /// KIR2DL4 /// KIR2DL5A /// KIR2DL5B /// KIR2DS1 /// KIR2DS2 /// KIR2DS3 /// KIR2DS4 /// KIR3DL3 /// KIR3DL3 /// KIR3DS1 (11738374_at) / Fold change /veh KIR2DL2 /// KIR2DL4 /// KIR2DL5A /// KIR2DL5B /// KIR2DS1 /// KIR2DS2 /// KIR2DS3 /// KIR2DS4 /// KIR3DL3 /// KIR3DL3 /// KIR3DS1 (11738374_at) / RFU C1QL1 (11718748_at) / Fold change /veh C1QL1 (11718748_at) / RFU TMPRSS4 (11747572_a_at) / Fold change /veh TMPRSS4 (11747572_a_at) / RFU HAMP (11756126_x_at) / Fold change /veh HAMP (11756126_x_at) / RFU RNFT2 (11725882_a_at) / Fold change /veh RNFT2 (11725882_a_at) / RFU NR4A2 (11747474_a_at) / Fold change /veh NR4A2 (11747474_a_at) / RFU ABCC12 (11746883_a_at) / Fold change /veh ABCC12 (11746883_a_at) / RFU TMEM136 (11760407_x_at) / Fold change /veh TMEM136 (11760407_x_at) / RFU CLDN22 /// WWC2 (11732394_at) / Fold change /veh CLDN22 /// WWC2 (11732394_at) / RFU HLA-DPB1 (11760878_x_at) / Fold change /veh HLA-DPB1 (11760878_x_at) / RFU SPINT1 (11716480_a_at) / Fold change /veh SPINT1 (11716480_a_at) / RFU GAP43 (11754022_s_at) / Fold change /veh GAP43 (11754022_s_at) / RFU A4GNT (11735810_at) / Fold change /veh A4GNT (11735810_at) / RFU PRB3 (11715151_x_at) / Fold change /veh PRB3 (11715151_x_at) / RFU TUBB4B (11761932_at) / Fold change /veh TUBB4B (11761932_at) / RFU CAPN14 (11732068_a_at) / Fold change /veh CAPN14 (11732068_a_at) / RFU TMCC2 (11721928_a_at) / Fold change /veh TMCC2 (11721928_a_at) / RFU IRGQ (11745062_a_at) / Fold change /veh IRGQ (11745062_a_at) / RFU FAM174B (11720279_a_at) / Fold change /veh FAM174B (11720279_a_at) / RFU TMPRSS4 (11748680_a_at) / Fold change /veh TMPRSS4 (11748680_a_at) / RFU FAM212B (11763350_a_at) / Fold change /veh FAM212B (11763350_a_at) / RFU PLEKHG5 (11743358_a_at) / Fold change /veh PLEKHG5 (11743358_a_at) / RFU ZSCAN30 (11745921_a_at) / Fold change /veh ZSCAN30 (11745921_a_at) / RFU CMKLR1 (11741424_a_at) / Fold change /veh CMKLR1 (11741424_a_at) / RFU LOC101060620 /// MAPK8IP1 (11723275_at) / Fold change /veh LOC101060620 /// MAPK8IP1 (11723275_at) / RFU SPTSSB (11747773_x_at) / Fold change /veh SPTSSB (11747773_x_at) / RFU PRSS12 (11739890_at) / Fold change /veh PRSS12 (11739890_at) / RFU BIN1 (11741810_x_at) / Fold change /veh BIN1 (11741810_x_at) / RFU WNT11 (11732464_a_at) / Fold change /veh WNT11 (11732464_a_at) / RFU C10orf10 (11716521_a_at) / Fold change /veh C10orf10 (11716521_a_at) / RFU C5orf56 (11738089_at) / Fold change /veh C5orf56 (11738089_at) / RFU CYB561 (11721691_x_at) / Fold change /veh CYB561 (11721691_x_at) / RFU ANKRD19P (11752326_a_at) / Fold change /veh ANKRD19P (11752326_a_at) / RFU OR2T12 /// OR2T33 /// OR2T8 (11738714_s_at) / Fold change /veh OR2T12 /// OR2T33 /// OR2T8 (11738714_s_at) / RFU VCAN (11748164_a_at) / Fold change /veh VCAN (11748164_a_at) / RFU JSRP1 (11732532_at) / Fold change /veh JSRP1 (11732532_at) / RFU KRTAP10-11 (11738290_x_at) / Fold change /veh KRTAP10-11 (11738290_x_at) / RFU MYO3A (11730013_a_at) / Fold change /veh MYO3A (11730013_a_at) / RFU EBF3 (11725865_a_at) / Fold change /veh EBF3 (11725865_a_at) / RFU CAMK2N1 (11719241_x_at) / Fold change /veh CAMK2N1 (11719241_x_at) / RFU C5orf56 (11738088_a_at) / Fold change /veh C5orf56 (11738088_a_at) / RFU OLFML3 (11715873_a_at) / Fold change /veh OLFML3 (11715873_a_at) / RFU LOC100653217 /// NTM (11731650_a_at) / Fold change /veh LOC100653217 /// NTM (11731650_a_at) / RFU MAPK11 (11762145_a_at) / Fold change /veh MAPK11 (11762145_a_at) / RFU FIZ1 (11724087_x_at) / Fold change /veh FIZ1 (11724087_x_at) / RFU OASL (11726364_x_at) / Fold change /veh OASL (11726364_x_at) / RFU SOX15 (11748057_x_at) / Fold change /veh SOX15 (11748057_x_at) / RFU CD79A (11719716_a_at) / Fold change /veh CD79A (11719716_a_at) / RFU HIST1H1D (11736915_at) / Fold change /veh HIST1H1D (11736915_at) / RFU CASKIN2 (11723855_a_at) / Fold change /veh CASKIN2 (11723855_a_at) / RFU LOC730098 (11760151_x_at) / Fold change /veh LOC730098 (11760151_x_at) / RFU OR4N2 (11742367_at) / Fold change /veh OR4N2 (11742367_at) / RFU PRRT2 (11749266_a_at) / Fold change /veh PRRT2 (11749266_a_at) / RFU SNX32 (11753110_a_at) / Fold change /veh SNX32 (11753110_a_at) / RFU CDHR5 (11726645_a_at) / Fold change /veh CDHR5 (11726645_a_at) / RFU RCAN1 (11760418_a_at) / Fold change /veh RCAN1 (11760418_a_at) / RFU FAM167A (11723789_a_at) / Fold change /veh FAM167A (11723789_a_at) / RFU FAM26E (11764081_at) / Fold change /veh FAM26E (11764081_at) / RFU ISYNA1 (11749810_s_at) / Fold change /veh ISYNA1 (11749810_s_at) / RFU ACY1 (11761880_at) / Fold change /veh ACY1 (11761880_at) / RFU 11764098_at / Fold change /veh 11764098_at / RFU SAMD14 (11745864_x_at) / Fold change /veh SAMD14 (11745864_x_at) / RFU NPB (11741838_a_at) / Fold change /veh NPB (11741838_a_at) / RFU TMPRSS6 (11731388_a_at) / Fold change /veh TMPRSS6 (11731388_a_at) / RFU KRTAP10-2 (11738614_at) / Fold change /veh KRTAP10-2 (11738614_at) / RFU ARHGAP8 /// PRR5-ARHGAP8 (11727945_x_at) / Fold change /veh ARHGAP8 /// PRR5-ARHGAP8 (11727945_x_at) / RFU KRTAP5-7 /// NADSYN1 (11734609_at) / Fold change /veh KRTAP5-7 /// NADSYN1 (11734609_at) / RFU RASL12 (11751679_a_at) / Fold change /veh RASL12 (11751679_a_at) / RFU CDKN2B (11736163_a_at) / Fold change /veh CDKN2B (11736163_a_at) / RFU PRF1 (11729649_at) / Fold change /veh PRF1 (11729649_at) / RFU, ZNF638 /// ZNF638-IT1 / Fold change vs veh, ZNF638 /// ZNF638-IT1 / RFU, PANK3 / Fold change vs veh, PANK3 / RFU, SH3YL1 / Fold change vs veh, SH3YL1 / RFU, ZEB2 / Fold change vs veh, ZEB2 / RFU, NRIP1 / Fold change vs veh, NRIP1 / RFU, PTTG1IP / Fold change vs veh, PTTG1IP / RFU, CAPN2 / Fold change vs veh, CAPN2 / RFU, MED14 / Fold change vs veh, MED14 / RFU, SNORA58 / Fold change vs veh, SNORA58 / RFU, C1orf63 / Fold change vs veh, C1orf63 / RFU, LRRFIP1 / Fold change vs veh, LRRFIP1 / RFU, NDUFAF7 / Fold change vs veh, NDUFAF7 / RFU, SLC12A2 / Fold change vs veh, SLC12A2 / RFU, IBTK / Fold change vs veh, IBTK / RFU, ESF1 / Fold change vs veh, ESF1 / Fold change vs veh, TMEM50B / RFU, TAOK1 / Fold change vs veh, TAOK1 / RFU, ACBD3 / Fold change vs veh, ACBD3 / RFU, TMA16 / Fold change vs veh, TMA16 / RFU, RWDD3 / Fold change vs veh, RWDD3 / RFU, BCAT1 / Fold change vs veh, BCAT1 / RFU, EDEM3 / Fold change vs veh, EDEM3 / RFU, TMEM33 / Fold change vs veh, TMEM33 / RFU, WDR75 / Fold change vs veh, WDR75 / RFU, AHCTF1 / Fold change vs veh, AHCTF1 / RFU, TFRC / Fold change vs veh, TFRC / RFU, ZDHHC17 / Fold change vs veh, ZDHHC17 / RFU, NOM1 / Fold change vs veh, NOM1 / RFU, ARL8B / Fold change vs veh, ARL8B / RFU, ZBTB11 / Fold change vs veh, ZBTB11 / RFU, TAMM41 / Fold change vs veh, TAMM41 / RFU, KIAA1704 /// LOC100996395 / Fold change vs veh, KIAA1704 /// LOC100996395 / RFU, ING1 / Fold change vs veh, ING1 / RFU, TRMT61B / Fold change vs veh, TRMT61B / RFU, FUBP3 / Fold change vs veh, FUBP3 / RFU, TP53 / Fold change vs veh, TP53 / RFU, TNKS2 / Fold change vs veh, TNKS2 / RFU, ZFP14 / Fold change vs veh, ZFP14 / RFU, ACTR2 / Fold change vs veh, ACTR2 / RFU, PPP3R1 / Fold change vs veh, PPP3R1 / RFU, PIK3R1 / Fold change vs veh, PIK3R1 / RFU, HNRNPA1 / Fold change vs veh, HNRNPA1 / RFU, RNF170 / Fold change vs veh, RNF170 / RFU, ZNF28 / Fold change vs veh, ZNF28 / RFU, RNGTT / Fold change vs veh, RNGTT / RFU, OGT / Fold change vs veh, OGT / RFU, BRD1 / Fold change vs veh, BRD1 / RFU, MARS / Fold change vs veh, MARS / RFU, ZNF655 / Fold change vs veh, ZNF655 / RFU, FAHD1 / Fold change vs veh, FAHD1 / RFU, BDP1 / Fold change vs veh, BDP1 / RFU, LRRCC1 / Fold change vs veh, LRRCC1 / RFU, ARID1A / Fold change vs veh, ARID1A / RFU, ZNF146 / Fold change vs veh, ZNF146 / RFU, ZNF330 / Fold change vs veh, ZNF330 / RFU, GPN3 / Fold change vs veh, GPN3 / RFU, C9orf123 / Fold change vs veh, C9orf123 / RFU, N4BP2L2 / Fold change vs veh, N4BP2L2 / RFU, ARFIP1 / Fold change vs veh, ARFIP1 / RFU, FAM179B / Fold change vs veh, FAM179B / RFU, BCL10 / Fold change vs veh, BCL10 / RFU, UHRF1BP1L / Fold change vs veh, UHRF1BP1L / RFU, BET1 / Fold change vs veh, BET1 / RFU, CNOT2 / Fold change vs veh, CNOT2 / RFU, ZNF268 / Fold change vs veh, ZNF268 / Fold change vs veh, ZNF507 / RFU, DGCR2 / Fold change vs veh, DGCR2 / RFU, WDSUB1 / Fold change vs veh, WDSUB1 / Fold change vs veh, HSP90B1 /// MIR3652 / RFU, ADSS / Fold change vs veh, ADSS / RFU, GK / Fold change vs veh, GK / RFU, ZNF148 / Fold change vs veh, ZNF148 / RFU, TAF9 / Fold change vs veh, TAF9 / RFU, SLC1A5 / Fold change vs veh, SLC1A5 / RFU, SLMO2 / Fold change vs veh, SLMO2 / RFU, ABCC4 / Fold change vs veh, ABCC4 / RFU, LOC101060439 /// RAP1B / Fold change vs veh, LOC101060439 /// RAP1B / RFU, RFX7 / Fold change vs veh, RFX7 / RFU, GTPBP10 / Fold change vs veh, GTPBP10 / RFU, CNEP1R1 / Fold change vs veh, CNEP1R1 / RFU, BIVM-ERCC5 /// ERCC5 / Fold change vs veh, BIVM-ERCC5 /// ERCC5 / RFU, ILF3 / Fold change vs veh, ILF3 / RFU 11762660_at / Fold change /veh 11762660_at / RFU VCAN (11757783_s_at) / Fold change /veh VCAN (11757783_s_at) / RFU DDX43 (11728927_at) / Fold change /veh DDX43 (11728927_at) / RFU KRT8 (11758188_x_at) / Fold change /veh KRT8 (11758188_x_at) / RFU NKD1 (11759106_at) / Fold change /veh NKD1 (11759106_at) / RFU SRD5A1 (11742802_a_at) / Fold change /veh SRD5A1 (11742802_a_at) / RFU TPSAB1 /// TPSB2 (11721975_s_at) / Fold change /veh TPSAB1 /// TPSB2 (11721975_s_at) / RFU GSTM3 (11746129_a_at) / Fold change /veh GSTM3 (11746129_a_at) / RFU IL23R (11737362_x_at) / Fold change /veh IL23R (11737362_x_at) / RFU TMEM51 (11727254_a_at) / Fold change /veh TMEM51 (11727254_a_at) / RFU PIWIL2 (11732686_x_at) / Fold change /veh PIWIL2 (11732686_x_at) / RFU ORM1 (11744905_x_at) / Fold change /veh ORM1 (11744905_x_at) / RFU CCDC152 (11743942_at) / Fold change /veh CCDC152 (11743942_at) / RFU ECM1 (11717891_a_at) / Fold change /veh ECM1 (11717891_a_at) / RFU IL23R (11748794_a_at) / Fold change /veh IL23R (11748794_a_at) / RFU TNFAIP8L3 (11732012_x_at) / Fold change /veh TNFAIP8L3 (11732012_x_at) / RFU MBOAT4 (11741988_at) / Fold change /veh MBOAT4 (11741988_at) / RFU 11764193_at / Fold change /veh 11764193_at / RFU TMEM53 (11763286_at) / Fold change /veh TMEM53 (11763286_at) / RFU MAGEB2 (11727129_at) / Fold change /veh MAGEB2 (11727129_at) / RFU TMEM200A (11744735_a_at) / Fold change /veh TMEM200A (11744735_a_at) / RFU CCDC152 (11751479_a_at) / Fold change /veh CCDC152 (11751479_a_at) / RFU FAM211A (11726209_a_at) / Fold change /veh FAM211A (11726209_a_at) / RFU RGS16 (11746705_a_at) / Fold change /veh RGS16 (11746705_a_at) / RFU VCAN (11755009_s_at) / Fold change /veh VCAN (11755009_s_at) / RFU RHOB (11743442_s_at) / Fold change /veh RHOB (11743442_s_at) / RFU RGS16 (11720943_a_at) / Fold change /veh RGS16 (11720943_a_at) / RFU RGS16 (11720944_at) / Fold change /veh RGS16 (11720944_at) / RFU, VPS4B / Fold change vs veh, VPS4B / RFU, CREB1 / Fold change vs veh, CREB1 / RFU, DNAJC13 / Fold change vs veh, DNAJC13 / RFU, GNAQ / Fold change vs veh, GNAQ / RFU, CDK5R1 / Fold change vs veh, CDK5R1 / RFU, ZRANB3 / Fold change vs veh, ZRANB3 / RFU, CUL4A / Fold change vs veh, CUL4A / RFU, CCNY / Fold change vs veh, CCNY / RFU, UFL1 / Fold change vs veh, UFL1 / RFU, COG3 / Fold change vs veh, COG3 / RFU, DIAPH2 / Fold change vs veh, DIAPH2 / RFU, SKA2 / Fold change vs veh, SKA2 / RFU, AFF3 / Fold change vs veh, AFF3 / RFU, LMF1 / Fold change vs veh, LMF1 / RFU, IPO11 / Fold change vs veh, IPO11 / RFU, DFFB / Fold change vs veh, DFFB / RFU, FOXP1 / Fold change vs veh, FOXP1 / RFU, CARD8 / Fold change vs veh, CARD8 / RFU, STRN3 / Fold change vs veh, STRN3 / RFU, ADK / Fold change vs veh, ADK / RFU, RASSF2 / Fold change vs veh, RASSF2 / RFU, WIPF1 / Fold change vs veh, WIPF1 / RFU, LARP1B / Fold change vs veh, LARP1B / RFU, RASA1 / Fold change vs veh, RASA1 / RFU, RB1 / Fold change vs veh, RB1 / RFU, PPFIA1 / Fold change vs veh, PPFIA1 / RFU, MAT2A / Fold change vs veh, MAT2A / RFU, CCT5 / Fold change vs veh, CCT5 / RFU, WDR92 / Fold change vs veh, WDR92 / RFU, CUX1 / Fold change vs veh, CUX1 / RFU, TTC7A / Fold change vs veh, TTC7A / RFU, TMEM135 / Fold change vs veh, TMEM135 / RFU, DEPTOR / Fold change vs veh, DEPTOR / RFU, CPM / Fold change vs veh, CPM / RFU, DNAJB6 / Fold change vs veh, DNAJB6 / RFU, CACNA2D3 / Fold change vs veh, CACNA2D3 / RFU, DTX4 / Fold change vs veh, DTX4 / RFU, TFCP2 / Fold change vs veh, TFCP2 / RFU, GMCL1 /// GMCL1P1 / Fold change vs veh, GMCL1 /// GMCL1P1 / RFU, AEBP2 / Fold change vs veh, AEBP2 / RFU, SNHG1 /// SNORD22 /// SNORD25 /// SNORD26 /// SNORD27 /// SNORD28 /// SNORD29 /// SNORD31 / Fold change vs veh, SNHG1 /// SNORD22 /// SNORD25 /// SNORD26 /// SNORD27 /// SNORD28 /// SNORD29 /// SNORD31 / Fold change (Aza/veh), C12orf56 (ProbeSet 11735607_a_at) / Fold change (ACY-1035/veh), C12orf56 (ProbeSet 11735607_a_at) / Fold change (Aza/veh), FGFR1OP (ProbeSet 11751329_s_at) / Fold change (ACY-1035/veh), FGFR1OP (ProbeSet 11751329_s_at) / Fold change (Aza/veh), VPS36 (ProbeSet 11739960_a_at) / Fold change (ACY-1035/veh), VPS36 (ProbeSet 11739960_a_at) / RFU SYPL1 (11715823_x_at) / Fold change /veh SYPL1 (11715823_x_at) / RFU IGFBP7 (11715501_s_at) / Fold change /veh IGFBP7 (11715501_s_at) / RFU REEP3 (11722064_at) / Fold change /veh REEP3 (11722064_at) / RFU IGLL1 (11728026_x_at) / Fold change /veh IGLL1 (11728026_x_at): dose or concentration left out as unconfirmed
Settings: MV-4-11 cells, 48 hours

SMILES: Nc1ccc(-c2cccs2)cc1NC(=O)c1ccc2c(c1)cc(C1CC1)n2CCN1CCOCC1 [ACY-1035]
- RFU OR4N2 (11742367_at): 72.30 RFU

— paper PMC5218480 (PLoS ONE, 2017)
